Experimental data from PMC8380212, “^18F-labeled tracers targeting fibroblast activation protein” (EJNMMI Radiopharmacy and Chemistry, 2021).

Experiments:
Serum stability assay = type: in vitro ADME, human; settings: 37 °C, 10 min to 4 h, radio-HPLC
Procedure: Five MBq of purified [^18F]AlF-FAPI-74 (20 GBq/µmol) were dried under reduced pressure and the residue incubated in 300 µL human serum (Sigma Aldrich Germany) at 37 °C. After different time intervals (10 min to 4 h) 20 µL samples were precipitated with 40 µL acetonitrile. The stability of the labeled peptide was monitored by radio-HPLC of the supernatant. A gradient of 0% to 30% acetonitrile in 10 min was used for enhanced separation performance.

[1] = molecular target: T1, CD26 expressing HEK-CD26 cells (Homo sapiens, UniProt P27487); assay: In vitro binding on HEK-CD26 cells (negative control); type: cell-based
T1 construct: expressed in transfected cells; host or cells: HEK cells transfected with CD26/DPP4 (HEK-CD26)
Procedure: (§1) The binding properties of the FAPI derivatives were evaluated using the FAP‐transfected HT‐1080‐FAP and CD26 expressing HEK-CD26 cells. All cells were cultivated in Dulbecco's modified Eagle's medium (DMEM) containing 10% fetal calf serum (FCS) at 37 °C/5% carbon dioxide. Cells were seeded in 6-well plates and cultivated to a final confluence of approximately 80–90% (1.2 to 2.0 × 10^6 cells/well). After washing with FCS free medium, for each well ca. 3 kBq of the radiolabeled compound (10–20 GBq/µmol for [^18F]AlF-labeling) was added to the cells in FCS free medium. On completion of the individual incubation time, cells were washed with PBS and treated with 1.4 mL lysis buffer (0.3 m NaOH, 0.2% SDS) before being transferred to measuring tubes. Competition experiments were performed by co-incubation with the unlabeled precursor for 60 min. Radioactivity was determined in a Wizard Gamma Counter (Perkin Elmer), normalized to 10^6 cells and calculated as percentage of the applied dose (%AD). Each experiment was performed in triplicate.

wild type HT1080 cells = assay: In vitro binding on wild type HT1080 cells (negative control); type: cell-based
Procedure: as §1
Table 1 summarizes the uptake and EC50 values of the discussed ^18F-labeled FAPI derivatives using the FAP-transfected cell line HT-1080-FAP. Additionally, the lead candidates FAPI-74 to -76 were tested on HEK-CD26 as well as -74 and -75 on wild type HT1080 cells as negative control. […] For FAPI-74, a plateau was already reached after approximately 10 min with 27.2 ± 0.88%AD/10^6cells. […] The EC50 values were all in the low to sub-nanomolar range. Only a neglectable fraction of FAPIs 74–76 were detected on HEK-CD26 cells (0.18–0.24%) as well as on wildtype HT1080 in case of -74 and 75 (< 0.1%).

HT-1080-FAP xenografts [2] = assay: Small animal PET imaging; type: in vivo, BALB/c nu/nu mice
Procedure: (§2) Eight-week-old BALB/c nu/nu mice (Charles River) were subcutaneously inoculated with 5 × 10^6 HT-1080-FAP cells. The subcutaneous xenografts were grown at the flanks of the mice. Xenografts were grown to a tumor diameter of 10–15 mm. Mice were anesthetized using isoflurane inhalation. 5–10 MBq of the [^18F]AlF-labeled compounds/ the respective tracer (FAPI-42/52/74/75/76; approx. 0.5 nmol; Am approximately 10–20 GBq/µmol) were injected intravenously for PET imaging. In vivo competition (blocking) experiments with ^68 Ga-FAPI-74 (9 MBq; 18.2 GBq/µmol) were performed by adding 30 nmol of unlabeled FAPI-74 to the injection solution. Images were acquired using a small-animal PET scanner (Inveon, Siemens). Within the first 60 min p.i., a dynamic scan was performed in list mode, followed by a static scan from 120–140 min post injection. Images were reconstructed iteratively using the 3D-OSEM + MAP method (Siemens) and were converted to standardized uptake value (SUV). For the dynamic analysis, 28 frames were reconstructed. Quantification was based on ROI analysis and expressed as SUV.
SUPPLEMENTAL TABLE 1: Tumor-SUVmean values of all mentioned ^18F labeled FAPI-derivatives in HT1080-FAP transplanted nude mice at different time points. The time points 8 min, 22 min and 57 min were selected from the applied 28-frame 3D-OSEM+MAP (Siemens) reconstruction method.

HT-1080-FAP xenografts [3] = assay: Organ distribution (biodistribution) study; type: in vivo, BALB/c nu/nu mice
Procedure: as §2
To reduce radiation exposure, the organ distribution study was performed with 1 MBq per animal. […] The radioactivity was measured using a γ-counter (Packard Cobra II Autogamma, GMI Inc., USA) and expressed as percentage of injected dose per gram of tissue (%ID/g). […]

[4] = system: NSCLC primary tumor and metastases; assay: Clinical PET/CT imaging of a patient with NSCLC; type: in vivo, human; settings: for SUVmean / SUVmax: primary tumor and metastases; for SUVmax: 323 MBq i.v.
Procedure: [^18F]AlF-FAPI-74 (16.2 GBq/µmol at time of injection) was applied intravenously (20 nmol; 323 MBq) to a patient with NSCLC. The PET/CT scans were performed 1 and 3 h post tracer administration with a Biograph mCT Flow™ PET/CT-Scanner (Siemens Medical Solutions). The parameters used were slice thickness of 5 mm, increment of 3–4 mm, soft-tissue reconstruction kernel and care dose. After CT scanning, a whole-body PET was acquired in 3D (matrix 200 × 200) in FlowMotion™ with 0.7 cm/min. The emission data were corrected for random, scatter and decay. Reconstruction was conducted with an ordered subset expectation maximization (OSEM) algorithm with 2 iterations/21 subsets and Gauss-filtered to a transaxial resolution of 5 mm at full-width half-maximum. Attenuation correction was performed using the low-dose non-enhanced CT data. The quantitative assessment of standardized uptake values (SUV) was done using a region of interest technique.

[5] = small animal PET, HT-1080-FAP xenograft

T1 sequence (P27487 whole entry): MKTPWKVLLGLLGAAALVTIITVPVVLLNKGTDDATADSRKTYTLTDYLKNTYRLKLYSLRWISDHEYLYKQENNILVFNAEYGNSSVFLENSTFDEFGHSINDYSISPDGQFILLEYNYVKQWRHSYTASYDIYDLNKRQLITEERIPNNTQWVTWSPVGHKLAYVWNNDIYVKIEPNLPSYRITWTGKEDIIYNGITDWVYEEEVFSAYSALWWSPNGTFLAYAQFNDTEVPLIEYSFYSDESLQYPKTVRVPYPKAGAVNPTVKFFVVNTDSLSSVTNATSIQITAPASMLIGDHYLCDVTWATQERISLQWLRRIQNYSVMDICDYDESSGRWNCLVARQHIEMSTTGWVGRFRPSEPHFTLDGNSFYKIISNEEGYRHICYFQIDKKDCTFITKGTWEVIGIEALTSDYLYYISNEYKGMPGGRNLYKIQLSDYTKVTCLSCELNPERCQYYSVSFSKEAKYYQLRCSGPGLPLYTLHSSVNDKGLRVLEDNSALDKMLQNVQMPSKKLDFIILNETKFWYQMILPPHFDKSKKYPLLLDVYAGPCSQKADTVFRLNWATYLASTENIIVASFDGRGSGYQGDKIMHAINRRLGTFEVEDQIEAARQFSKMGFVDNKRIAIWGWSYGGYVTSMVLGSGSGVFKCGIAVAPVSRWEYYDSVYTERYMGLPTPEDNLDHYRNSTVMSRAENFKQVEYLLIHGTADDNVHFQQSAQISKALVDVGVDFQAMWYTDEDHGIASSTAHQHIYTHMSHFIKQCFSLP

With `N#C[C@@H]1CCCN1C(=O)CNC(=O)c1ccnc2ccc(OCCCN3CCN(C(=O)CN4CCN(CC(=O)O)CCN(CC(=O)O)CC4)CC3)cc12` [FAPI-74] the “stability in human serum” value (Serum stability assay; listed as 18F-labeled FAPI-74) was “No degradation products were observed”, the “stability in human serum” value (Serum stability assay; listed as [^18F]AlF-FAPI-74) was “no degradation of the tracer or instability of the [^18F]AlF-NOTA complex” and the “uptake CD26” value [1] was 0.18 ± 0.04 %AD/10^6 cells. The “uptake WT” value (wild type HT1080 cells; wild type HT1080 control cells) was 0.07 ± 0.03 %AD/10^6 cells, the “fraction detected on wildtype HT1080” value (wild type HT1080 cells; wildtype HT1080, text) was under 0.1% and the “Tumor Uptake (SUVmean) 8 min” value (HT-1080-FAP xenografts [2]; HT1080-FAP transplanted nude mice, 8 min) was 1.58. The “Tumor Uptake (SUVmean) 22 min” value (HT-1080-FAP xenografts [2]; HT1080-FAP transplanted nude mice, 22 min) was 1.81, the “Tumor Uptake (SUVmean) 57 min” value (HT-1080-FAP xenografts [2]; HT1080-FAP transplanted nude mice, 57 min) was 1.91 and the “Tumor Uptake (SUVmean) 120 min” value (HT-1080-FAP xenografts [2]; HT1080-FAP transplanted nude mice, 120 min) was 1.3. For the same molecule, the excretion pathway (HT-1080-FAP xenografts [2]; small animal PET in tumor bearing mice) was “favorable renal excretion”, the “tumor uptake SUVmean” value (HT-1080-FAP xenografts [2]; small animal PET screening, discussion) was “approx. 2.0” and the tumor-SUV max (HT-1080-FAP xenografts [2]; [5]) was 2.3. For the same molecule, the tumor-SUV mean (HT-1080-FAP xenografts [2]; [5]) was 1.9, the tumor uptake (HT-1080-FAP xenografts [3]; after 30 min, HT-1080-FAP bearing Balb/c nu/nu mice) was 6.9 %ID/g and the early tumor uptake (HT-1080-FAP xenografts [3]; early, discussion) was “approximately 7 %ID/g”. The “excretion route in patient” value ([4]; non-target tissues and blood pool) was “excreted predominantly via the kidneys”, the “SUV in normal tissues” value ([4]; normal tissues of the patient) was “almost zero” and the SUVmean ([4]; 1 h) was 3.3 ± 0.6. It also gave an SUVmax ([4]; 1 h) of 6.5 ± 1.1, an SUVmean ([4]; 3 h) of 2.75 ± 0.5 and an SUVmax ([4]; 3 h) of 5.6 ± 0.7.
